Source: patent US20240293558A1, “KRAS INHIBITOR CONJUGATES” (Erasca, Inc., priority 2021, published 2024)
Where two headings read alike, the source gives them in different places.

How the values were obtained:
Assay type in all cases: cell-based
WT KRAS = biological target: T1, WT KRAS (Homo sapiens, UniProt P01116); experiment: Degradation of KRAS wild type (WT) in HT-29 cells, Western blot; conditions: HT-29 cell line, after 24 h treatment (FIG. 12)
T1 construct: endogenous in cells; host or cells: HT-29 (ATCC HTB-38)
T1 sequence (P01116 1-188 isoform P01116-2): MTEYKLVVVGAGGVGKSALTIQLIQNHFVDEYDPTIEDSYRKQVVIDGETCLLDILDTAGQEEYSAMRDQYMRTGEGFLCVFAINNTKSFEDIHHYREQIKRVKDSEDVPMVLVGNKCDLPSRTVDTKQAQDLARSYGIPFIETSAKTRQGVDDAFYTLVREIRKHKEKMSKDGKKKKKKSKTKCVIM
Procedure: This Example illustrates that embodiments of the present application degrade KRAS WT
HT-29 cells (ATCC HTB-38) expressing WT KRAS were grown in McCoy's 5a medium modified (ATCC cat #30-2007) supplemented with 10% fetal bovine serum, and Penicillin/Streptomycin. Cell were plated in 6-well tissue culture plates at a density of 1 million cells/well and allowed to attach for overnight. Diluted compounds were then added in a final concentration of 0.2% DMSO. After 24 hour treatment, the medium was removed, and the plate was washed three times with ice-cold PBS. 50ul of the RIPA cell lysis buffer (ThermoFisher 89901) supplemented with protease inhibitor (Roche 4693116001) and Phosphatase Cocktail A and B inhibitor (Bimake B15002; Bimake Houston TX) was added to each well, the adherent cells were scratched off, and transferred into pre-cold centrifuge tubes. […] The protein concentration of the supernatant was determined with bicinchoninic acid method (BCA) (ThermoFisher 23227). […]
The levels of KRAS protein were determined by Western blotting. […] The signal intensities of bands were quantified by Li-Cor Odyssey CLX.
The KRAS signals were normalized to the GAPDH signal for each lane and percent of DMSO values were calculated to determine the degradation of KRAS upon the compound treatment.

KRAS G12D [1] = biological target: T2, KRAS G12D (Homo sapiens, UniProt P01116, G12D); experiment: Degradation of KRas G12D in AsPC-1 cells, Western blot; parameters: endogenous in cells; host or cells: AsPC-1 (ATCC CRL-1682); conditions: ASPC-1 cell line after 24 h treatment (FIG. 11); read-out: KRAS wild type degradation DC50
T2 sequence (P01116 1-188 isoform P01116-2 G12D): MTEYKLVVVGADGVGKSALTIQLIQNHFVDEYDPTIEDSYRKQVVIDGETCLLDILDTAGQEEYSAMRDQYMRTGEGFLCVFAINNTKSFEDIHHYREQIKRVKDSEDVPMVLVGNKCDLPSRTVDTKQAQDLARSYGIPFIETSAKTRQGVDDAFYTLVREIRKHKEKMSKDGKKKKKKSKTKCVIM

KRAS G12D [2] = biological target: T2, KRAS G12D; experiment: as above; parameters: endogenous in cells; host or cells: AsPC-1 (ATCC CRL-1682)
Procedure: This Example illustrates that the compounds presented herein degrade KRAS G12D.
AsPC-1 cells (ATCC CRL-1682) expressing G12D were grown in RPMI-1640 medium supplemented with 10% fetal bovine serum, and Penicillin/Streptomycin. Cell were plated in 6-well tissue culture plates at a density of 1 million cells/well and allowed to attach for overnight. Diluted compounds were then added in a final concentration of 0.2% DMSO. After 24 hour treatment, the medium was removed, and the plate was washed three times with ice-cold PBS. 50ul of the RIPA cell lysis buffer (ThermoFisher 89901) supplemented with protease inhibitor (Roche 4693116001) and Phosphatase Cocktail A and B inhibitor (Bimake B15002; Bimake Houston TX) was added to each well, the adherent cells were scratched off, and transferred into pre-cold centrifuge tubes. After vigorous vortex, the tubes were incubated on ice for 30 minutes, centrifuged 14,000 rpm for 10 min at 4° C., and the supernatant were transferred into fresh tubes kept on ice. The protein concentration of the supernatant was determined with bicinchoninic acid method (BCA) (ThermoFisher 23227). Samples were prepared to the final concentration of 30ug in 20ul using NuPAGE LDS Sample Buffer (Invitrogen NP0007), NuPAGE Sample Reducing Agent (Invitrogen NP0009), and RIPA cell lysis buffer, and boiled at 95° C. for 15 minutes in water bath.
The levels of KRAS protein and phosphorylated ERK1/2 were determined by Western blotting. 20 μL of protein sample mixture was loaded into each well of 1.5 mm 4-12% Bis-Tris gel (Invitrogen NP0335), and run at 80V in stacking gel and 120 V in separating gel for about 2 h in MOPS running buffer (Invitrogen NP0001). The gel was transferred to the membrane (20V, 7 min) with Invitrogen iBlot2, and blocked with Li-Cor blocking buffer (LI-COR 927-60001; Li-Cor Biotechnology, Lincoln NE) for at least 1 h at room temperature. Primary antibodies diluted in the blocking buffer were added and incubated at 4° C. overnight. As the primary antibodies, KRAS (Proteintech 12063-1-AP), G12D Mutant Specific KRAS (Cell Signaling Technology 14429S), ERKI1/2 (Cell Signaling Technology 4695S), Phospho-ERKI1/2 (Cell Signaling Technology 4370S), and GAPDH (Millipore MAB374) were used. The membrane was washed 4 times with TBST (0.10% Tween20®; ThermoFisher 28360) for 5 minutes at room temperature, then incubated with Li-Cor anti-rabbit-800 (LI-COR 926-68070) and anti-mouse-680 (LI-COR-926-32211) diluted in Li-Cor blocking buffer with the ratio of 1:15,000 to visualize the primary antibodies for 1 hour at room temperature. Then membrane was washed 4 times with TBST (0.1% Tween20) 5 minutes. The signal intensities of bands were quantified by Li-Cor Odyssey CLX.
The KRas and phosphor-ERK1/2 signals were normalized to the GAPDH signal for each lane and percent of DMSO values were calculated to determine the degradation of KRas and the inhibition of ERK1/2 phosphorylation upon the compound treatment.

| DC50 (WT KRAS) [nM] | DC50 (KRAS G12D [1]) [nM] | SMILES | Dmax (KRAS G12D [2]; ASPC1, AsPc-1 cell line after 24 h treatment) [%] | KRAS G12D degradation (Western blot), result in words (KRAS G12D [2]; AsPC-1 cells, FIGS. 1-5) | DC50 (KRAS G12D [2]; AsPc-1 cell line after 24 h treatment) [nM] |
| --- | --- | --- | --- | --- | --- |
| 426 | 8.2 | C[C@H](NC(=O)[C@@H]1C[C@@H](O)CN1C(=O)[C@@H](NC(=O)CCOCCCN1CCC[C@H]1COc1nc(N2CC3CCC(C2)N3)c2cc(C(F)(F)F)c(-c3ccc(F)c4sc(N)c(C#N)c34)c(F)c2n1)C(C)(C)C)c1ccc(-c2c(F)cccc2F)cc1 (single isomer, unassigned) [Example 20] |  |  |  |
|  |  | Cc1ncsc1-c1ccc([C@H](C)NC(=O)[C@@H]2C[C@@H](O)CN2C(=O)[C@@H](NC(=O)CCOCCCN2CCCC2COc2nc(N3CC4CCC(C3)N4)c3cc(Cl)c(-c4ccc(F)c5sc(N)c(C#N)c45)c(F)c3n2)C(C)(C)C)cc1 (stereo partly drawn) [Example 8, (2S,4R)-1-[(2S)-2-[3-[3-[2-[[7-(2-amino-3-cyano-7-fluoro-benzothiophen-4-yl)-6-chloro-4-(3,8-diazabicyclo[3.2.1]octan-3-yl)-8-fluoro-quinazolin-2-yl]oxymethyl]pyrrolidin-1-yl]propoxy]propanoylamino]-3,3-dimethyl-butanoyl]-4-hydroxy-N-[(1S)-1-[4-(4-methylthiazol-5-yl)phenyl]ethyl]pyrrolidine-2-carboxamide] | 95 | Favorable results | 71 |
